Reference: US20210236512A1 (ZARODEX THERAPEUTICS LIMITED, priority 2018, published 2021)
Values joined by “and” are separate entries in the source; they are usually repeats but may differ in a detail not shown here. Equal entries are not always repeated. “Also recorded” adds a separate entry of the source.

Columns and labels:
[1] = tested on: anti-type II collagen IgG1 and IgG2a; experiment: Mouse CIA model: specific anti-collagen immunoglobulin by ELISA; assay type: in vivo, DBA/1 mice
[2] = tested on: B cell subsets in spleen and inguinal lymph nodes; experiment: Mouse CIA model: B cell subsets in spleen and lymph nodes by FACS; assay type: in vivo, DBA/1 mice
[3] = mouse, in vivo
[4] = tested on: collagen-induced arthritis (CIA); experiment: Mouse collagen-induced arthritis (CIA) model: onset, clinical score and paw-swelling; assay type: in vivo, DBA/1 mice
From the text: Adult (age 13-15 weeks) DBA/1 male mice were purchased from Envigo (Horst, Netherlands). […] 1. […] All experiments were approved by the Clinical Medicine Animal Welfare and Ethical Review Body (AWERB) and by the UK Home Office. DBA/1 mice were immunised with bovine type II collagen in CFA and monitored daily for onset of arthritis. […] Controls received vehicle (saline) alone. Treatment of mice commenced in one experiment on day 1 after immunisation and in a second experiment on day 15 after immunisation. Clinical scores and paw-swelling were monitored for 10 days following onset of arthritis. A clinical scoring system was used as follows. Arthritis severity was scored by an experienced, non-blinded investigator as follows: 0=normal, 1=slight swelling and/or erythema, 2=pronounced swelling, 3=ankylosis. […] Data were analyzed by one-way ANOVA with Tukey's or Dunnett's multiple comparison test or two-way ANOVA with Tukey's multiple comparison test as appropriate. All calculations were made using GraphPad Prism software.

[5] = tested on: total peripheral blood B-cells isolated from healthy donors; assay type: cell-based, human; conditions: clozapine 25-350 ng/ml, norclozapine 15-200 ng/ml, haloperidol 2-25 ng/ml
Method: The experiment was performed from four independent donors.

[6] = tested on: Immunoglobulin levels (IgG, IgA and IgM); experiment: First observational study: serum immunoglobulin levels by nephelometry, clozapine-treated vs clozapine-naive patients; assay type: in vivo, human
[7] = sub-group A: all diagnoses, all smoking, secondary causes not excluded, n=123
[8] = sub-group A: all diagnoses, all smoking, secondary causes not excluded, n=123, listed as clozapine
[9] = sub-group B: possible secondary causes excluded, n=94
[10] = sub-group C: schizophrenia diagnoses only, secondary causes excluded, n=87

## CN1CCN(C2=Nc3cc(Cl)ccc3Nc3ccccc32)CC1 [Clozapine, clozapine]
[1]; 10 mg/kg from day 15
  Reduction of anti-type II collagen IgG1: reaching statistical significance
[1]; 5 or 10 mg/kg from day 1 or day 15, single time point
  Serum anti-type II collagen IgG2a: no significant impact
[1]; across all doses tested
  Levels of anti-type II collagen IgG1: nominal reductions
[2]; 10 mg/kg from day 1
  Proportion of B220+ B cells in spleen: significantly reduced
[2]; 10 mg/kg given on day 1
  Proportion of plasma cells in spleen: significant reduction
[2]; all clozapine treatment groups vs vehicle, dose- and time-dependent
  Level of GL7 expression on follicular B cells in lymph node: significantly decreased
[2]; all doses and time points (5 or 10 mg/kg from day 1 or day 15)
  Percentage of B220+ B cells in lymph nodes: significantly lower
[2]; all doses/both time points
  Lymph node follicular B cells (B220+IgD-Fas+GL7hi): Strikingly significant reductions
[2]; all doses/times
  Plasma cell numbers in lymph node: no significant effect
[2]; every other dose/time evaluated
  Plasma cells as a proportion of live cells in spleen compared to control: nominally lower values
[3]
  Effects on thermoregulation: effects on thermoregulation were also evident
[3]; ip, 5 mg/kg
  Sedative effects: Clear dose-related sedative effects
[4]; 10 mg/kg from day 1
  Swelling of the first affected paw: reduced
[4]; 5 or 10 mg/kg IP daily from day 1 or day 15
  Onset of arthritis post-immunisation: significantly effective in delaying the onset of arthritis
[4]; both doses (5, 10 mg/kg) from day 1
  Arthritis onset, treatment from day 1: extremely effective in delaying arthritis onset
[4]; both doses, administered on day 1
  Overall clinical score: reduced
[4]; most apparent when dosed just after CII immunisation, FIG. 26
  Incidence of CIA: reduces the incidence
[4]; significant with dosing at D1
  Total number of affected paws compared to vehicle control: reduced
[5]
  Functional or phenotypic maturation of activated B cells to an early PC state: no consistent inhibitory effect
[5]; day 6 and day 9
  Ability of differentiated ASCs to secrete antibody (total IgM/IgG ELISA): no consistent effect
[6]; FIG. 1A-D
  Concentrations / distribution of serum IgG, IgA and IgM vs clozapine-naive control group: significantly reduced; also recorded: leftward shift (reduction)
[6]; p 0.014, not observed in clozapine-naive patients
  Effect of duration of clozapine therapy on serum IgG levels: associated with lower serum IgG levels; also recorded: progressively reduced IgG levels
[6]; [7]
  Serum IgA <0.5 g/L, percentage of patients: 1.6%
  Serum IgA <0.6 g/L, percentage of patients: 2.4%
  Serum IgA <0.7 g/L, percentage of patients: 6.5%
  Serum IgA <0.8 g/L (below reference range 0.8-4.0 g/L), percentage of patients: 13.1% and 13.0%
  Serum IgG <3 g/L, percentage of patients: 0.8%
  Serum IgG <4 g/L, percentage of patients: 1.6%
  Serum IgG <5 g/L, percentage of patients: 3.3%
  Serum IgG <6 g/L (below reference range 6-16 g/L), percentage of patients: 9.8%
  Serum IgM <0.2 g/L, percentage of patients: 8.1%
  Serum IgM <0.3 g/L, percentage of patients: 16.3%
  Serum IgM <0.4 g/L, percentage of patients: 29.3%
  Serum IgM <0.5 g/L (below reference range 0.5-1.9 g/L), percentage of patients: 38.2%
[6]; [8]
  Serum IgA <0.8 g/L (below reference range 0.8-4.0 g/L), percentage of patients: 13.0%
  Serum IgG <6 g/L (below reference range 6-16 g/L), percentage of patients: 9.8%
  Serum IgM <0.5 g/L (below reference range 0.5-1.9 g/L), percentage of patients: 38.2%
[6]; [9]
  Serum IgA <0.5 g/L, percentage of patients: 2.1%
  Serum IgA <0.6 g/L, percentage of patients: 2.1%
  Serum IgA <0.7 g/L, percentage of patients: 6.4%
  Serum IgA <0.8 g/L (below reference range 0.8-4.0 g/L), percentage of patients: 13.8%
  Serum IgG <3 g/L, percentage of patients: 1.1%
  Serum IgG <4 g/L, percentage of patients: 1.1%
  Serum IgG <5 g/L, percentage of patients: 2.1%
  Serum IgG <6 g/L (below reference range 6-16 g/L), percentage of patients: 8.4%
  Serum IgM <0.2 g/L, percentage of patients: 5.3%
  Serum IgM <0.3 g/L, percentage of patients: 12.8%
  Serum IgM <0.4 g/L, percentage of patients: 26.6%
  Serum IgM <0.5 g/L (below reference range 0.5-1.9 g/L), percentage of patients: 34.0%
[6]; [10]
  Serum IgA <0.5 g/L, percentage of patients: 2.3%
  Serum IgA <0.6 g/L, percentage of patients: 3.5%
  Serum IgA <0.7 g/L, percentage of patients: 6.9%
  Serum IgA <0.8 g/L (below reference range 0.8-4.0 g/L), percentage of patients: 14.9%
  Serum IgG <3 g/L, percentage of patients: 1.2%
  Serum IgG <4 g/L, percentage of patients: 1.2%
